Experimental data taken from US8471005B2 (Cephalon, Inc., priority 2008, dated 2013).
Read-outs that look alike come from different tables or passages of the source.

Legend:
JAK2 = target: T1, JAK2 (Homo sapiens, UniProt O60674); experiment: Recombinant Human JAK2 Kinase Assay (TRF); type: biochemical; conditions: read-out: JAK2 Potency
T1 construct: host or cells: baculovirus expression system
Procedure, shortened: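 Baculovirus-expressed JAK2 (15 ng/ml) phosphorylated a biotinylated 15-mer peptide captured on Neutravidin-coated plates, in 20 mM HEPES pH 7.2 with 0.2 μM ATP, 1 mM MnCl2, 0.1% BSA and 2.5% DMSO. Reaction ran 20 min at room temperature; phosphopeptide was detected by time-resolved fluorescence with Eu-N1-labelled PY100 antibody.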

ALK = target: T2, ALK (Homo sapiens, UniProt Q9UM73); experiment: ALK Kinase Assay (ELISA/TRF, PLC-γ substrate); type: biochemical; conditions: read-out: ALK Potency
T2 construct: host or cells: baculovirus expression system
Procedure, shortened: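 PLC-γ coat 10 μg/mL in TBS; ALK 30 ng/ml added to start; 37° C, 15 min; Eu-N1 PT66 antibody detection (TRF). IC50: % inhibition vs log10 [cpd], variable-slope sigmoidal fit.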

[1] = JAK2 kinase inhibition, 0.2 μM ATP
[2] = ALK kinase inhibition, 1 μM ATP

T2 sequence (Q9UM73 19-1620): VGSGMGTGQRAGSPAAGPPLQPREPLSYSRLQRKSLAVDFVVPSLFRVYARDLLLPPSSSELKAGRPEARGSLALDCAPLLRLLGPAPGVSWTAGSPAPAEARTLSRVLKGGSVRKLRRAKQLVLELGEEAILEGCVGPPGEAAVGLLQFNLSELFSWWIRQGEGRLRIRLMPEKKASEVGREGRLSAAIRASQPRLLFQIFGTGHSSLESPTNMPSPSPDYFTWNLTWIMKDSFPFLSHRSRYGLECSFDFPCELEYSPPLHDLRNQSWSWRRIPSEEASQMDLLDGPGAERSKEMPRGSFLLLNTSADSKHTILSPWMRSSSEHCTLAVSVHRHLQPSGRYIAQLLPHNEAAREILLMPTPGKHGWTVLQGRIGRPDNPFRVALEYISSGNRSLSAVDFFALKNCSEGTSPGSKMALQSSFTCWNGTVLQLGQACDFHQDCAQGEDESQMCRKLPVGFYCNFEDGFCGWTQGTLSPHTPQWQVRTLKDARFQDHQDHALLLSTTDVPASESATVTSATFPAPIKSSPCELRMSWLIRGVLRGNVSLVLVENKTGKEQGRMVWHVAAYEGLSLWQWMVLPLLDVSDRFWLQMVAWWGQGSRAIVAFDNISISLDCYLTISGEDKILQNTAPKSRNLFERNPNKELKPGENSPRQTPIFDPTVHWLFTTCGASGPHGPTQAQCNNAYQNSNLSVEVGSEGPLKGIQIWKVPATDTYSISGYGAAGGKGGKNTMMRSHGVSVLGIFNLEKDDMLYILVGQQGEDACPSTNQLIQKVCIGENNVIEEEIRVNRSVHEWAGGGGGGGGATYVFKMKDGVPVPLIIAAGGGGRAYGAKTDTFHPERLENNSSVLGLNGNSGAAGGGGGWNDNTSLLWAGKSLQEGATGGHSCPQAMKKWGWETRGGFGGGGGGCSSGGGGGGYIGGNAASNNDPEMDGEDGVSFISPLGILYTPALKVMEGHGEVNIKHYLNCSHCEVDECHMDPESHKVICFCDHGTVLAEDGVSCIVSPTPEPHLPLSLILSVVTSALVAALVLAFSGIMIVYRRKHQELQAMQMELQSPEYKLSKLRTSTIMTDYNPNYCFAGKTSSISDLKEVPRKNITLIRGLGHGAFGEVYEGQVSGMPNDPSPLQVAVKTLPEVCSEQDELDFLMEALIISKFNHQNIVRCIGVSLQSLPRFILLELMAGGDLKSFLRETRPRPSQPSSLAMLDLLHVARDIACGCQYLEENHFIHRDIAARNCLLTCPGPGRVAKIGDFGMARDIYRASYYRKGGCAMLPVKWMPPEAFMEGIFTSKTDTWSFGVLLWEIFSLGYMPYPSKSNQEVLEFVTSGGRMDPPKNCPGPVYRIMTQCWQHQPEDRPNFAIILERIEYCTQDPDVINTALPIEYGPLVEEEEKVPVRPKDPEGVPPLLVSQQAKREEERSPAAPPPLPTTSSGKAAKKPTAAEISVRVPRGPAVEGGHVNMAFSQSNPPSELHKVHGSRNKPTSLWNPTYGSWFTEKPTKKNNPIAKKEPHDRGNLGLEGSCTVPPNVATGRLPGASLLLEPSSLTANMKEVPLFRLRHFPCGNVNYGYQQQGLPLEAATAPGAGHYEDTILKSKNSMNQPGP
T1 sequence (O60674 whole entry): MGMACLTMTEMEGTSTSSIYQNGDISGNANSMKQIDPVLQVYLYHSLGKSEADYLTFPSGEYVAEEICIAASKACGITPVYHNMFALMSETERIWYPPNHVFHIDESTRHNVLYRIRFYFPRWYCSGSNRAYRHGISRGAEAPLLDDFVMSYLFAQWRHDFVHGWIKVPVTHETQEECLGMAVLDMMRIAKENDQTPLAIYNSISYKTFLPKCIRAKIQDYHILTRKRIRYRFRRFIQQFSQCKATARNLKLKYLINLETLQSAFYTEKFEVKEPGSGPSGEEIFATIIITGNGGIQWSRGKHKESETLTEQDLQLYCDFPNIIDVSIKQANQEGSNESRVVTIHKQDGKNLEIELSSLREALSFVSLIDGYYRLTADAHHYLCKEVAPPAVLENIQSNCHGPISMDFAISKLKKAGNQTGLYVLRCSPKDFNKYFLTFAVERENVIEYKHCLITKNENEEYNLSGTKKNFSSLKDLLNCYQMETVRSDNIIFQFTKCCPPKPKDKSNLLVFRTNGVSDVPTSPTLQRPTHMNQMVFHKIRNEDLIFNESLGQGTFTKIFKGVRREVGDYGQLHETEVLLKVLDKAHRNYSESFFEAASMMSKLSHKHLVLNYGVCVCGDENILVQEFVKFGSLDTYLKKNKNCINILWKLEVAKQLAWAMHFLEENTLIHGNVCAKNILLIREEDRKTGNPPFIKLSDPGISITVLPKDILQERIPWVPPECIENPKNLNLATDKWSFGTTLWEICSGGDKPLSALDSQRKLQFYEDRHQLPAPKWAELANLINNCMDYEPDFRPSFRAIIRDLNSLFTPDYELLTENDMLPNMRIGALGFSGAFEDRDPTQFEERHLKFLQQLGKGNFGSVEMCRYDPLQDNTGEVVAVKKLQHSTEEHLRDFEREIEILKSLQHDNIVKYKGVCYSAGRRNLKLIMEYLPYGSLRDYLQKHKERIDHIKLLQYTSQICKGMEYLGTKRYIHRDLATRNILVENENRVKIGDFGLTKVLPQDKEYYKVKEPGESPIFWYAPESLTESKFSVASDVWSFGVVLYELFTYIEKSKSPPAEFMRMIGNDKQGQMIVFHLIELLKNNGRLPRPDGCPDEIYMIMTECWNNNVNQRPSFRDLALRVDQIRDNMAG

Structure (SMILES)	IC50 (JAK2; [1])	IC50 (ALK; [2])	IC50 (JAK2; JAK2 Kinase Inhibition)	IC50 (ALK; ALK Kinase Inhibition)
COc1cc(C2CCN(CC(N)=O)CC2)ccc1Nc1ncc2ccc(-c3ccccc3-n3cccn3)n2n1 [Example 854, 2-(4-{3-Methoxy-4-[7-(2-pyrazol-1-yl-phenyl)-pyrrolo[2,1-f][1,2,4]triazin-2-ylamino]-phenyl}-piperidin-1-yl)-acetamide]	> 10000 nM	< 100 nM	–	–
COc1ccccc1-c1c(Br)c(Br)c2cnc(Nc3ccc(N4CCOCC4)cc3)nn12 [Example 110, [5,6-Dibromo-7-(2-methoxy-phenyl)-pyrrolo[2,1-f][1,2,4]triazin-2-yl]-(4-morpholin-4-yl-phenyl)-amine]	–	–	< 100 nM	> 10000 nM
c1ccc(-c2ccc3cnc(NCCN4CCOCC4)nn23)cc1 [Example 28, (2-Morpholin-4-yl-ethyl)-(7-phenyl-pyrrolo[2,1-f][1,2,4]triazin-2-yl)-amine]	–	–	1000 to 10000 nM	> 10000 nM
COc1cc([C@H]2CC[C@H](N3CCOCC3)CC2)ccc1Nc1ncc2ccc(-c3ccccc3OC)n2n1 [Example 1247, N-{2-methoxy-4-[trans-4-(morpholin-4-yl)cyclohexyl]phenyl}-7-(2-methoxyphenyl)pyrrolo[2,1-f][1,2,4]triazin-2-amine]	100 to 1000 nM	< 100 nM	–	–
Oc1ccc(-c2ccc3cnc(Nc4ccc(N5CCOCC5)cc4)nn23)cn1 [Example 331, 5-[2-(4-Morpholin-4-yl-phenylamino)-pyrrolo[2,1-f][1,2,4]triazin-7-yl]-pyridin-2-ol]	–	–	< 100 nM	1000 to 10000 nM
COc1ccc(-c2ccc3cnc(Nc4cccc(C5(O)CCNCC5)c4)nn23)cn1 [Example 1551, 4-{3-[7-(6-Methoxy-pyridin-3-yl)-pyrrolo[2,1-f][1,2,4]triazin-2-ylamino]-phenyl}-piperidin-4-ol]	–	–	< 100 nM	100 to 1000 nM
CS(=O)(=O)c1ccc(-c2ccc3cnc(-n4cnc5cnccc54)nn23)cc1 [Example 330, 1-[7-(4-Methanesulfonyl-phenyl)-pyrrolo[2,1-f][1,2,4]triazin-2-yl]-1H-imidazo[4,5-c]pyridine]	–	–	1000 to 10000 nM	1000 to 10000 nM
COc1cc(N2CCN(C[C@@H](O)CO)CC2)ccc1Nc1ncc2ccc(-c3cc(Cl)ccc3OC)n2n1 [Example 757, (R)-3-(4-{4-[7-(5-Chloro-2-methoxy-phenyl)-pyrrolo[2,1-f][1,2,4]triazin-2-ylamino]-3-methoxy-phenyl}-piperazin-1-yl)-propane-1,2-diol]	100 to 1000 nM	< 100 nM	–	–
CC(=O)Nc1cc(Nc2ncc3ccc(-c4cnn(C)c4)n3n2)ccc1Cl [Example 962, N-{2-Chloro-5-[7-(1-methyl-1H-pyrazol-4-yl)pyrrolo[2,1f][1,2,4]triazin-2-ylamino]-phenyl}-acetamide]	< 100 nM	1000 to 10000 nM	–	–
CC(=O)N1CC(C)(C)c2ccc(Nc3ncc4ccc(-c5cccc(S(=O)(=O)NC(C)(C)C)c5)n4n3)cc21 [Example 1388, 3-[2-(1-Acetyl-3,3-dimethyl-2,3-dihydro-1H-indol-6-ylamino)-pyrrolo[2,1-f][1,2,4]triazin-7-yl]-N-tert-butyl-benzenesulfonamide]	–	–	< 100 nM	100 to 1000 nM
O=S(=O)(c1cccc(-c2ccc3cnc(Nc4ccc(C5CCN(CCO)CC5)cc4)nn23)c1)N1CCOCC1 [Example 677, 2-[4-(4-{7-[3-(Morpholine-4-sulfonyl)-phenyl]-pyrrolo[2,1-f][1,2,4]triazin-2-ylamino}-phenyl)-piperidin-1-yl]-ethanol]	< 100 nM	100 to 1000 nM	–	–
COc1ccccc1-c1cc(Br)c2cnc(Nc3ccc(N4CCN(C)CC4)cc3)nn12 [Example 101, [5-Bromo-7-(2-methoxy-phenyl)-pyrrolo[2,1-f][1,2,4]triazin-2-yl]-[4-(4-methyl-piperazin-1-yl)-phenyl]-amine]	–	–	< 100 nM	< 100 nM
COc1ccccc1-c1ccc2cnc(Nc3ccc4c(c3)CN(CC(N)=O)C4)nn12 [Example 925, 2-{5-[7-(2-Methoxy-phenyl)-pyrrolo[2,1-f][1,2,4]triazin-2-ylamino]-1,3-dihydro-isoindol-2-yl}-acetamide]	< 100 nM	100 to 1000 nM	–	–
CNC(=O)c1cccc(Nc2ncc3ccc(-c4cccc(S(=O)(=O)NC(C)(C)C)c4)n3n2)c1 [Example 1384, 3-[7-(3-tert-Butylsulfamoyl-phenyl)-pyrrolo[2,1-f][1,2,4]triazin-2-ylamino]-N-methyl-benzamide]	–	–	< 100 nM	1000 to 10000 nM
CN(C)S(=O)(=O)c1ccc(Nc2ncc3ccc(-c4cccc(S(=O)(=O)NC(C)(C)C)c4)n3n2)cc1 [Example 593, 4-({7-[3-(tert-butylsulfamoyl)phenyl]pyrrolo[2,1-f][1,2,4]triazin-2-yl}amino)-N,N-dimethylbenzenesulfonamide]	< 100 nM	> 10000 nM	–	–
COc1cc(C2=CCN(CC(N)=O)CC2)ccc1Nc1ncc2ccc(-c3ccccc3OC)n2n1 [Example 1274, 2-(4-{3-Methoxy-4-[7-(2-methoxy-phenyl)-pyrrolo[2,1-f][1,2,4]triazin-2-ylamino]-phenyl}-3,6-dihydro-2H-pyridin-1-yl)-acetamide]	100 to 1000 nM	< 100 nM	–	–
CN1C(=O)COc2cc(Nc3ncc4ccc(-c5cccc(S(=O)(=O)NC(C)(C)C)c5)n4n3)ccc21 [Example 648, N-tert-Butyl-3-[2-(4-methyl-3-oxo-3,4-dihydro-2H-benzo[1,4]oxazin-7-ylamino)-pyrrolo[2,1-f][1,2,4]triazin-7-yl]-benzenesulfonamide]	< 100 nM	100 to 1000 nM	–	–
COc1cc(CN2CCN(C(=O)OC(C)(C)C)CC2)ccc1Nc1ncc2ccc(-c3ccccc3N(C)S(C)(=O)=O)n2n1 [Example 1222, 4-(4-{7-[2-(Methanesulfonyl-methyl-amino)-phenyl]-pyrrolo[2,1-f][1,2,4]triazin-2-ylamino}-3-methoxy-benzyl)-piperazine-1-carboxylic acid tert-butyl ester]	1000 to 10000 nM	< 100 nM	–	–
CN1CCN(c2ccc(Nc3ncc4ccc(-c5ccc(C=O)o5)n4n3)cc2)CC1 [Example 1196, 5-{2-[4-(4-Methyl-piperazin-1-yl)-phenylamino]-pyrrolo[2,1-f][1,2,4]triazin-7-yl}-furan-2-carbaldehyde]	< 100 nM	100 to 1000 nM	–	–

Results, then the compound that gave them:

IC50 (JAK2; [1])	IC50 (ALK; [2])	IC50 (JAK2; JAK2 Kinase Inhibition)	IC50 (ALK; ALK Kinase Inhibition)	Structure (SMILES)
< 100 nM	1000 to 10000 nM	–	–	NC(=O)CN1CCC(c2ccc(Nc3ncc4ccc(-c5cccc6cccnc56)n4n3)cc2)CC1 [Example 514, 2-{4-[4-(7-Quinolin-8-yl-pyrrolo[2,1-f][1,2,4]triazin-2-ylamino)-phenyl]-piperidin-1-yl}-acetamide]
< 100 nM	100 to 1000 nM	–	–	CC(C)(C)NS(=O)(=O)c1cccc(-c2ccc3cnc(Nc4ccc(C5CCN(CCO)CC5)cc4)nn23)c1 [Example 670, N-tert-Butyl-3-(2-{4-[1-(2-hydroxy-ethyl)-piperidin-4-yl]-phenylamino}-pyrrolo[2,1-f][1,2,4]triazin-7-yl)-benzenesulfonamide]
< 100 nM	1000 to 10000 nM	–	–	COc1ccc(-c2ccc3cnc(Nc4cccc(C#N)c4)nn23)cn1 [Example 974, 3-[7-(6-Methoxy-pyridin-3-yl)pyrrolo[2,1f][1,2,4]triazin-2-ylamino]-benzonitrile]
< 100 nM	< 100 nM	–	–	COc1ccccc1-c1ccc2cnc(Nc3ccc4c(c3)CS(=O)(=O)C4)nn12 [Example 659, (2,2-Dioxo-2,3-dihydro-1H-2$1(6)-benzo[c]thiophen-5-yl)-[7-(2-methoxy-phenyl)-pyrrolo[2,1-f][1,2,4]triazin-2-yl]-amine]
< 100 nM	100 to 1000 nM	–	–	CN1CCN(C)C(c2ccc(Nc3ncc4ccc(-c5ccccc5N(C)S(C)(=O)=O)n4n3)cc2)C1=O (stereo not shown) [Example 1073, N-(2-{2-[4-(1,4-Dimethyl-3-oxo-piperazin-2-yl)-phenylamino]-pyrrolo[2,1-f][1,2,4]triazin-7-yl}-phenyl)-N-methyl-methanesulfonamide]
< 100 nM	1000 to 10000 nM	–	–	COc1ccc(-c2ccc3cnc(Nc4cccc(NCC(N)=O)c4)nn23)cn1 [Example 975, 2-{3-[7-(6-Methoxy-pyridin-3-yl)-pyrrolo[2,1-f][1,2,4]triazin-2-ylamino]-phenylamino}-acetamide]
< 100 nM	< 100 nM	–	–	COCc1ccccc1-c1ccc2cnc(Nc3ccc(N4CCC(N5CCN(C)CC5)CC4)cc3OC)nn12 [Example 538, [7-(2-Methoxymethyl-phenyl)-pyrrolo[2,1-f][1,2,4]triazin-2-yl]-{2-methoxy-4-[4-(4-methyl-piperazin-1-yl)-piperidin-1-yl]-phenyl}-amine]
< 100 nM	100 to 1000 nM	–	–	CS(=O)(=O)CCNCc1cccc(-c2ccc3cnc(Nc4ccc(N5CCOCC5)cc4)nn23)c1 [Example 1209, (7-{3-[(2-Methanesulfonyl-ethylamino)-methyl]-phenyl}-pyrrolo[2,1-f][1,2,4]triazin-2-yl)-(4-morpholin-4-yl-phenyl)-amine]
< 100 nM	> 10000 nM	–	–	CN(Cc1cccc(-c2ccc3cnc(Nc4ccc5c(c4)NC(=O)C5(C)C)nn23)c1)S(C)(=O)=O [Example 1054, N-{3-[2-(3,3-Dimethyl-2-oxo-2,3-dihydro-1H-indol-6-ylamino)-pyrrolo[2,1-f][1,2,4]triazin-7-yl]-benzyl}-N-methyl-methanesulfonamide]
< 100 nM	100 to 1000 nM	–	–	COc1ccccc1-c1ccc2cnc(Nc3ccc4c(c3)C(NC(=O)OC(C)(C)C)C(O)C4)nn12 (stereo not shown) [Example 673, {2-Hydroxy-6-[7-(2-methoxy-phenyl)-pyrrolo[2,1-f][1,2,4]triazin-2-ylamino]-indan-1-yl}-carbamic acid tert-butyl ester]
